Patent publication US6365753B1, “Phthalimides and herbicide containing the same as active component” (Mitsubishi Chemical Corporation, priority 1998, dated 2002)

Tests used:
Format in all cases: in vivo
Chenopodium album = assay: Soil treatment test pre-emergence application; conditions: 10 g/a active ingredient, 28th day from treatment, herbicidal index; further: ranges in brackets are in %
Method: (§1) Volcanic ash soil from a field was put in a resin-made pot having an area of 200 cm^2. After fertilization, soil previously mixed uniformly with the seeds of Digitaria ciliaris, Setaria viridis, Chenopodium album and Polygonum lapathifolium was scattered on the soil. The emulsifiable concentrate comprising the compound of the invention as an active ingredient which was obtained in Formulation Example 3 was diluted with water, and a prescribed amount of the diluted composition was sprayed uniformly to the surface of the soil by means of a small-sized power pressure spray to give 10 g of the active ingredient per are.
(§2) Thereafter, cultivation was continued in a greenhouse, and the herbicidal effect was examined on the 28th day from the treatment. The results obtained are shown in Table 5 (the compound numbers in Table 5 correspond to those in Tables 1 and 2). The herbicidal effect was evaluated based on the same criteria as in Test Example 1.

Digitaria ciliaris = assay: Soil treatment test pre-emergence application; conditions: 10 g/a active ingredient, 28th day from treatment, herbicidal index; further: ranges in brackets are in %
Method: as §1, §2

Polygonum lapathifolium = assay: Soil treatment test pre-emergence application; conditions: 10 g/a active ingredient, 28th day from treatment, herbicidal index; further: ranges in brackets are in %
Method: as §1, §2

Setaria viridis = assay: Soil treatment test pre-emergence application; conditions: 10 g/a active ingredient, 28th day from treatment, herbicidal index; further: ranges in brackets are in %
Method: as §1, §2

Alopeculus aequalis = assay: Foliar treatment test (1) post-emergence application; conditions: foliar treatment post-emergence at 1.0- to 2.0-leaf stage, 10 g/a active ingredient, 21st day from treatment; herbicidal index; further: ranges in brackets are in %
Method: (§3) Volcanic ash soil from a field was put in a resin-made pot having an area of 200 cm^2. After fertilization, the seeds of Brassica juncea, Ipomoea purpurea, Echinochloa crus-galli and Alopeculus aequalis were cast on the soil and uniformly covered with the soil.
(§4) Cultivation was continued in a greenhouse, and when the weeds reached the 1.0- to 2.0-leaf stage, a prescribed amount of the emulsifiable concentrate comprising the compound of the invention as an active ingredient which was prepared in Formulation Example 3 as diluted with water was sprayed uniformly to the weeds by means of a small-sized power pressure spray to give 10 g of the active ingredient per are.
(§5) Thereafter, cultivation was further continued in the greenhouse, and the herbicidal effect was examined on the 21st day from the treatment. The results obtained are shown in Table 6 (the compound numbers in Table 6 correspond to those in Tables 1 and 2). The herbicidal effect was evaluated based on the same criteria as in Test Example 1.

Brassica juncea [1] = assay: as above; conditions: foliar treatment post-emergence at 1.0- to 2.0-leaf stage, 10 g/a active ingredient, 21st day from treatment; herbicidal index
Method: as §3, §4, §5

Echinochloa crus-galli [2] = assay: as above; conditions: foliar treatment post-emergence at 1.0- to 2.0-leaf stage, 10 g/a active ingredient, 21st day from treatment; herbicidal index
Method: as §3, §4, §5

Ipomoea purpurea = assay: as above; conditions: foliar treatment post-emergence at 1.0- to 2.0-leaf stage, 10 g/a active ingredient, 21st day from treatment; herbicidal index; further: ranges in brackets are in %
Method: as §3, §4, §5

Echinochloa crus-galli [3] = assay: Submerged treatment test; conditions: 10 g/a active ingredient, treated 5th day from sowing, examined on the 2.8th day from treatment, herbicidal index; further: ranges in brackets are in %
Method: (§6) Alluvial soil from a paddy field was put in a resin-made pot having an area of 200 cm^2. After fertilization, an adequate amount of water was added, and the soil was puddled and leveled. Seeds of Echinochloa crus-galli, Monochoria vaginalis, Rotala indica and Scirpus juncoides were sowed within a layer 0.5 cm below the surface of the soil. Water was poured onto the soil to keep a water depth of 3.5 cm.
(§7) On the 5th day from the sowing, the emulsifiable concentrate containing the compound of the invention as an active ingredient which was prepared in Formulation Example 3 was diluted with water. A prescribed amount of the diluted composition was dropped to the water so as to give 10 g of the active ingredient per are.
(§8) Cultivation was continued in a greenhouse, and the herbicidal effect was examined on the […] from the treatment. The results obtained are shown in Table 4 (the compound numbers in Table 4 correspond to those in Tables 1 and 2). The herbicidal effect was evaluated in terms of herbicidal index based on Y(%) obtained from equation:
(§9) y=[1−(Weight of weeds above the ground in a treated pot)/(Weight of weeds above the ground in a non-treated pot)]×100 (%)

Monochoria vaginalis = assay: Submerged treatment test; conditions: 10 g/a active ingredient, treated 5th day from sowing, examined on the 2.8th day from treatment, herbicidal index; further: ranges in brackets are in %
Method: as §6, §7, §8, §9

Rotala indica = assay: Submerged treatment test; conditions: 10 g/a active ingredient, treated 5th day from sowing, examined on the 2.8th day from treatment, herbicidal index; further: ranges in brackets are in %
Method: as §6, §7, §8, §9

Scirpus juncoides = assay: Submerged treatment test; conditions: 10 g/a active ingredient, treated 5th day from sowing, examined on the 2.8th day from treatment, herbicidal index; further: ranges in brackets are in %
Method: as §6, §7, §8, §9

Brassica juncea [4] = assay: Foliar treatment test (3) post emergence application; conditions: 3.0 to 4.0-leaf stage, 0.125% X-77, 21st day, index
Method: (§10) Volcanic ash soil from a field was put in a resin-made pot having an area of 200 cm^2. After fertilization, the seeds of Galim spurium, Brassica juncea, and wheat were cast on the soil and covered with the soil uniformly. Cultivation was continued in a greenhouse until the plants reached to the 3.0 to 4.0-leaf stage.
(§11) The emulsifiable concentrate comprising compound No. 5 of the present invention, comparative compound (B) or comparative compound (C) as an active ingredient which was prepared in accordance with Formulation Example 3 was diluted with water containing 0.125% of a spreading agent X-77 (trade name, Valent USA Co.) so that a spray of 250 L/ha might give a prescribed amount of the active ingredient. The diluted composition was uniformly sprayed to the Galium spurium plant, the Brassica juncea plant, and the wheat plant by means of a small-sized power pressure spray.
(§12) Thereafter, cultivation was continued in the greenhouse, and the herbicidal effect and the injury to the crop were examined on the 21st day from the treatment. The herbicidal effect and the injury to the crop were evaluated on the same criteria as in Test Example 4.

Galium spurium = assay: as above; conditions: 3.0 to 4.0-leaf stage, 0.125% X-77, 21st day, index
Method: as §10, §11, §12

wheat = assay: Foliar treatment test (3) post emergence application, crop injury; conditions: 3.0 to 4.0-leaf stage, 0.125% X-77, 21st day, index
Method: as §10, §11, §12
Wherever Herbicidal Effect Echinochloa crus-galli is given: ranges in brackets are in %.

O=C(O)C(Cl)Cc1cc(N2C(=O)c3ccccc3C2=O)c(F)cc1Cl (centres unmarked) [Compound 3, 2-Chloro-3-(2-chloro-4-fluoro-5-pthalimidophenyl)propionic Acid]
Herbicidal Effect Chenopodium album (Chenopodium album): 5 (91-100)
Herbicidal Effect Digitaria ciliaris (Digitaria ciliaris): 0 (0-5)
Herbicidal Effect Polygonum lapathifolium (Polygonum lapathifolium): 5 (91-100)
Herbicidal Effect Setaria viridis (Setaria viridis): 0 (0-5)
Herbicidal Effect Alopeculus sequalis (Alopeculus aequalis): 1 (6-30)
Herbicidal Effect Brassica juncea (Brassica juncea [1]): 5 (91-100)
Herbicidal Effect Echinochloa crus-galli (Echinochloa crus-galli [2]): 1 (6-30)
Herbicidal Effect Ipompoea-purpurea (Ipomoea purpurea): 5 (91-100)

O=C(OC1CCCC1)C(Cl)Cc1cc(N2C(=O)c3ccccc3C2=O)c(F)cc1Cl (centres unmarked) [Compound 9]
Herbicidal Effect Echinochloa crus-galli (Echinochloa crus-galli [3]): 5 (91-100)
Herbicidal Effect Monochoria vaginalis (Monochoria vaginalis): 5 (91-100)
Herbicidal Effect Rotala indica (Rotala indica): 5 (91-100)
Herbicidal Effect Scirpus juncoides (Scirpus juncoides): 5 (91-100)
Herbicidal Effect Alopeculus sequalis (Alopeculus aequalis): 1 (6-30)
Herbicidal Effect Brassica juncea (Brassica juncea [1]): 5 (91-100)
Herbicidal Effect Echinochloa crus-galli (Echinochloa crus-galli [2]): 2 (31-50)
Herbicidal Effect Ipompoea-purpurea (Ipomoea purpurea): 5 (91-100)

CCOC(=O)C(Cl)Cc1cc(-n2nc(C)n(C(F)F)c2=O)c(F)cc1Cl (centres unmarked) [Comparative Compound (C), Carfentrazone-ethyl]
Herbicidal Effect Brassica juncea (Brassica juncea [4]; 12.5 ga.i./ha): 9 (90-99)
Herbicidal Effect Brassica juncea (Brassica juncea [4]; 25.0 ga.i./ha): 10 (100)
Herbicidal Effect Brassica juncea (Brassica juncea [4]; 50.0 ga.i./ha): 10 (100)
Herbicidal Effect Galium spurium (Galium spurium; 12.5 ga.i./ha): 10 (100)
Herbicidal Effect Galium spurium (Galium spurium; 25.0 ga.i./ha): 10 (100)
Herbicidal Effect Galium spurium (Galium spurium; 50.0 ga.i./ha): 10 (100)
Crop Injury Wheat (wheat; 12.5 ga.i./ha): 3 (20-29)
Crop Injury Wheat (wheat; 25.0 ga.i./ha): 4 (30-39)
Crop Injury Wheat (wheat; 50.0 ga.i./ha): 6 (60-69)

CCOC(=O)C(Cl)Cc1cc(N2C(=O)c3ccccc3C2=O)c(F)cc1Cl (centres unmarked) [Compound 5, ethyl 2-chloro-3-(2-chloro-4-fluoro-5-phthalimidophenyl)propionate]
Herbicidal Effect Echinochloa crus-galli (Echinochloa crus-galli [3]): 4 (71-90)
Herbicidal Effect Monochoria vaginalis (Monochoria vaginalis): 5 (91-100)
Herbicidal Effect Rotala indica (Rotala indica): 5 (91-100)
Herbicidal Effect Scirpus juncoides (Scirpus juncoides): 4 (71-90)
Herbicidal Effect Alopeculus sequalis (Alopeculus aequalis): 1 (6-30)
Herbicidal Effect Brassica juncea (Brassica juncea [1]): 5 (91-100)
Herbicidal Effect Echinochloa crus-galli (Echinochloa crus-galli [2]): 3 (51-70)
Herbicidal Effect Ipompoea-purpurea (Ipomoea purpurea): 5 (91-100)
Herbicidal Effect Brassica juncea (Brassica juncea [4]; 12.5 ga.i./ha): 10 (100)
Herbicidal Effect Brassica juncea (Brassica juncea [4]; 25.0 ga.i./ha): 10 (100)
Herbicidal Effect Brassica juncea (Brassica juncea [4]; 50.0 ga.i./ha): 10 (100)
Herbicidal Effect Galium spurium (Galium spurium; 12.5 ga.i./ha): 10 (100)
Herbicidal Effect Galium spurium (Galium spurium; 25.0 ga.i./ha): 10 (100)
Herbicidal Effect Galium spurium (Galium spurium; 50.0 ga.i./ha): 10 (100)
Crop Injury Wheat (wheat; 12.5 ga.i./ha): 0 (0)
Crop Injury Wheat (wheat; 25.0 ga.i./ha): 0 (0)
Crop Injury Wheat (wheat; 50.0 ga.i./ha): 1 (1-9)

COC(=O)C(Cl)Cc1cc(N2C(=O)c3ccccc3C2=O)ccc1Cl (centres unmarked) [Compound 1]
Herbicidal Effect Alopeculus sequalis (Alopeculus aequalis): 1 (6-30)
Herbicidal Effect Brassica juncea (Brassica juncea [1]): 5 (91-100)
Herbicidal Effect Echinochloa crus-galli (Echinochloa crus-galli [2]): 1 (6-30)
Herbicidal Effect Ipompoea-purpurea (Ipomoea purpurea): 5 (91-100)

COC(=O)C(Cl)Cc1cc(N2C(=O)c3ccc(F)cc3C2=O)ccc1Cl (centres unmarked) [Compound 2]
Herbicidal Effect Alopeculus sequalis (Alopeculus aequalis): 1 (6-30)
Herbicidal Effect Brassica juncea (Brassica juncea [1]): 5 (91-100)
Herbicidal Effect Echinochloa crus-galli (Echinochloa crus-galli [2]): 2 (31-50)
Herbicidal Effect Ipompoea-purpurea (Ipomoea purpurea): 5 (91-100)

CCOC(=O)/C=C/c1cc(N2C(=O)c3ccccc3C2=O)c(F)cc1Cl [Compound 17, Ethyl 3-(2-Chloro-4-fluoro-5-phthalimidophenyl)acrylate]
Herbicidal Effect Alopeculus sequalis (Alopeculus aequalis): 1 (6-30)
Herbicidal Effect Brassica juncea (Brassica juncea [1]): 5 (91-100)
Herbicidal Effect Echinochloa crus-galli (Echinochloa crus-galli [2]): 1 (6-30)
Herbicidal Effect Ipompoea-purpurea (Ipomoea purpurea): 5 (91-100)

CCCNC(=O)C(Cl)Cc1cc(N2C(=O)c3ccccc3C2=O)c(F)cc1Cl (centres unmarked) [Compound 10, 2-Chloro-3-(2-chloro-4-fluoro-5-phthalimidophenyl)-N-propylpropionamide]
Herbicidal Effect Alopeculus sequalis (Alopeculus aequalis): 3 (51-70)
Herbicidal Effect Brassica juncea (Brassica juncea [1]): 5 (91-100)
Herbicidal Effect Echinochloa crus-galli (Echinochloa crus-galli [2]): 4 (71-90)
Herbicidal Effect Ipompoea-purpurea (Ipomoea purpurea): 5 (91-100)

CCO/N=C(/COc1cc(N2C(=O)c3ccccc3C2=O)c(F)cc1Cl)C(=O)OCC [Comparative Compound (B)]
Herbicidal Effect Brassica juncea (Brassica juncea [4]; 12.5 ga.i./ha): 9 (90-99)
Herbicidal Effect Brassica juncea (Brassica juncea [4]; 25.0 ga.i./ha): 10 (100)
Herbicidal Effect Brassica juncea (Brassica juncea [4]; 50.0 ga.i./ha): 10 (100)
Herbicidal Effect Galium spurium (Galium spurium; 12.5 ga.i./ha): 9 (90-99)
Herbicidal Effect Galium spurium (Galium spurium; 25.0 ga.i./ha): 9 (90-99)
Herbicidal Effect Galium spurium (Galium spurium; 50.0 ga.i./ha): 10 (100)
Crop Injury Wheat (wheat; 12.5 ga.i./ha): 3 (20-29)
Crop Injury Wheat (wheat; 25.0 ga.i./ha): 3 (20-29)
Crop Injury Wheat (wheat; 50.0 ga.i./ha): 4 (30-39)

CC(C)CNC(=O)C(Cl)Cc1cc(N2C(=O)c3ccccc3C2=O)c(F)cc1Cl (centres unmarked) [Compound 11]
Herbicidal Effect Chenopodium album (Chenopodium album): 5 (91-100)
Herbicidal Effect Digitaria ciliaris (Digitaria ciliaris): 4 (71-90)
Herbicidal Effect Polygonum lapathifolium (Polygonum lapathifolium): 5 (91-100)
Herbicidal Effect Setaria viridis (Setaria viridis): 4 (71-90)
Herbicidal Effect Alopeculus sequalis (Alopeculus aequalis): 4 (71-90)
Herbicidal Effect Brassica juncea (Brassica juncea [1]): 5 (91-100)
Herbicidal Effect Echinochloa crus-galli (Echinochloa crus-galli [2]): 4 (71-90)
Herbicidal Effect Ipompoea-purpurea (Ipomoea purpurea): 5 (91-100)

COC(=O)C=Cc1cc(N2C(=O)c3ccccc3C2=O)c(F)cc1Cl [Compound 16]
Herbicidal Effect Alopeculus sequalis (Alopeculus aequalis): 1 (6-30)
Herbicidal Effect Brassica juncea (Brassica juncea [1]): 5 (91-100)
Herbicidal Effect Echinochloa crus-galli (Echinochloa crus-galli [2]): 3 (51-70)
Herbicidal Effect Ipompoea-purpurea (Ipomoea purpurea): 5 (91-100)

COC(=O)C(Cl)Cc1cc(N2C(=O)c3ccccc3C2=O)c(F)cc1Cl (centres unmarked) [Compound 4, Methyl 2-Chloro-3-(2-chloro-4-fluoro-5-phthalimidophenyl)propionate]
Herbicidal Effect Chenopodium album (Chenopodium album): 5 (91-100)
Herbicidal Effect Digitaria ciliaris (Digitaria ciliaris): 0 (0-5)
Herbicidal Effect Polygonum lapathifolium (Polygonum lapathifolium): 5 (91-100)
Herbicidal Effect Setaria viridis (Setaria viridis): 0 (0-5)
Herbicidal Effect Alopeculus sequalis (Alopeculus aequalis): 1 (6-30)
Herbicidal Effect Brassica juncea (Brassica juncea [1]): 5 (91-100)
Herbicidal Effect Echinochloa crus-galli (Echinochloa crus-galli [2]): 2 (31-50)
Herbicidal Effect Ipompoea-purpurea (Ipomoea purpurea): 5 (91-100)

CCCCOC(=O)C(Cl)Cc1cc(N2C(=O)c3ccccc3C2=O)c(F)cc1Cl (centres unmarked) [Compound 8]
Herbicidal Effect Echinochloa crus-galli (Echinochloa crus-galli [3]): 5 (91-100)
Herbicidal Effect Monochoria vaginalis (Monochoria vaginalis): 5 (91-100)
Herbicidal Effect Rotala indica (Rotala indica): 5 (91-100)
Herbicidal Effect Scirpus juncoides (Scirpus juncoides): 5 (91-100)
Herbicidal Effect Alopeculus sequalis (Alopeculus aequalis): 1 (6-30)
Herbicidal Effect Brassica juncea (Brassica juncea [1]): 5 (91-100)
Herbicidal Effect Echinochloa crus-galli (Echinochloa crus-galli [2]): 1 (6-30)
Herbicidal Effect Ipompoea-purpurea (Ipomoea purpurea): 5 (91-100)
